Laboratory results reported in publication PMC10829512, “Transport of metformin metabolites by guanidinium exporters of the small multidrug resistance family” (The Journal of General Physiology, 2024).

Key:
Gdx-Clo = biological target: T1, Gdx-Clo (Clostridiales bacterium oral taxon 876, UniProt U2EQ00); assay: SSM electrophysiology of Gdx-Clo proteoliposomes; assay type: biochemical, Clostridales oral taxon 876; settings: 2 mM substrate
T1 sequence (U2EQ00 1-105): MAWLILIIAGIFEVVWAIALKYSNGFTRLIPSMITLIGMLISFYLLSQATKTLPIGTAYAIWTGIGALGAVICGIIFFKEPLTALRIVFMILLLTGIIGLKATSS
Method: (§1) Gdx-Clo ([Kermani et al., 2018]), Gdx-Eco ([Kermani et al., 2018]), EmrE ([Kermani et al., 2022]), and Gdx-pAmi ([Martinez-Vaz et al., 2022]) construct design and purification have been described previously. […] Proteins were overexpressed in C41(DE3). Expression was induced by the addition of 0.2 mM IPTG for 3 h. Cells were lysed and extracted with 2% n-decyl-β-D-maltoside (DM) for 2 h. After pelleting insoluble cell debris, proteins were purified using cobalt affinity resin. Wash buffer contained 25 mM Tris, pH 8.5, 150 mM NaCl, and 5 mM DM. For Gdx-pAmi, NaCl concentration was increased to 500 mM NaCl. The affinity column was washed with wash buffer, then wash buffer with 10 mM imidazole, prior to elution with wash buffer with 400 mM imidazole. For Gdx-Clo and Gdx-Eco, histidine tags were cleaved with LysC (200 ng/mg of protein; 2 h at room temperature; New England Biolabs), and for all others, histidine tags were cleaved with thrombin (1 U/mg of protein, overnight at room temperature; MilliporeSigma). Proteins were further purified using a gel filtration Superdex200 column (Cytiva) equilibrated with 100 mM NaCl, 10 mM N-2-hydroxyethylpiperazine-N′-2-ethanesulfonic acid (HEPES), pH 7.5, and 5 mM DM. Purified proteins were stored at 4°C for up to 5 days before detergent binding assays. To prepare proteoliposomes for electrophysiology assays, purified protein was mixed with E. coli polar lipid extract (10 mg/ml; Avanti Polar Lipids) solubilized with 35 mM 3-[(3-cholamidopropyl)dimethylammonio]-1-propanesulfonate (CHAPS) at a protein to lipid ratio of 40 μg SMR transporter: mg lipid (1:370 protein:lipid molar ratio) prior to detergent removal by dialysis. For preparations that included Fluc-Bpe, liposomes were reconstituted with a molar ratio of 0.3 Fluc-Bpe:1 SMRGdx: 5920 lipid (1 μg Fluc-Bpe and ∼2.5 μg SMRGdx per mg lipid). For liposome transport assays, proteoliposomes were prepared similarly, except that a 2:1 mixture of 1-palmitoyl, 2-oleoylphosphatidylethanolamine (POPE) and 1-palmitoyl, 2-oleoylphosphatidylglycerol (POPG) (10 mg/ml; Avanti Polar Lipids) was used with 0.2 μg protein/mg lipid. Proteoliposomes were stored at −80°C until use.
(§2) SSM experiments were performed using SURFE^2R N1 instrument (Nanion Technologies). Sensors were prepared with a 1,2-diphytanoyl-sn-glycero-3-phosphocholine (DPhPC) lipid monolayer according to published protocols ([Bazzone et al., 2017]). Each sensor’s capacitance and conductance were verified before use (<80 nF capacitance, <50 nS conductance) using Nanion software protocols. Proteoliposome stock was diluted 1:25 in assay buffer (100 mM KCl, 100 mM KPO4, pH 7.5) prior to adsorption to the DPhPC monolayer. For substrate screening experiments, reference substrate samples (Gdm^+ for SMRGdx, and TPA^+ for SMRQac) were checked periodically to test for the stability of the sensor; if the current amplitude of the reference compound differed by >10% on one sensor, it indicated the desorption of liposomes, and the sensor was not used for further experiments. For every SSM electrophysiology experiment, we used the same general solution exchange protocol: after 2 s perfusion with a non-activating solution, we perfused substrate-containing buffer for 2 s and then returned to the equilibrium condition with a 4 s perfusion of non-activating buffer. For experiments with the S104C/A70C crosslinked variant, reducing conditions were established by the addition of 2.5 mM tris(2-carboxyethyl)phosphine (TCEP) to the activating and non-activating buffers.
(§3) We screened a series of metformin metabolites for transport using SSM electrophysiology (Fig. 2, A and B).

Gdx-Eco = Gdx-Eco (Escherichia coli, UniProt P69937); assay: SSM electrophysiology of Gdx-Eco proteoliposomes; assay type: biochemical; settings: 2 mM substrate
Chain of Gdx-Eco (P69937 whole entry): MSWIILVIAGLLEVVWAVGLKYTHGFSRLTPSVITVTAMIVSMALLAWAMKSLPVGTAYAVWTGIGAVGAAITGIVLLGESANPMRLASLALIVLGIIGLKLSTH
Method: as §1, §2, §3

Gdx-pAmi = assay: SSM electrophysiology of Gdx-pAmi proteoliposomes; assay type: biochemical, Aminobacter sp. MET; settings: 2 mM substrate
Method: as §1, §2, §3

Gdx-pPro = Gdx-pPro (Citrobacter freundii, UniProt O69279); settings: 2 mM substrate
Chain of Gdx-pPro (O69279 2-105): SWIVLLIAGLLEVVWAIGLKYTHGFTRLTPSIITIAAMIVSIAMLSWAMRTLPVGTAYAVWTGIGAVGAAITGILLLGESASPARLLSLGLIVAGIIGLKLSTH
N=C(N)N = assay: purified protein, by the assay type; settings: other: Gdx-pPro, pH 7.5, mean ± SEM

Row | Molecule | Transport currents in substrate screen (Gdx-Clo) | Transport currents in substrate screen (Gdx-Eco) | Transport currents in substrate screen (Gdx-pAmi) | Transport currents in substrate screen (Gdx-pPro) | Km (N=C(N)N)
1 | CN(C)C(=N)N=C(N)N [Metformin, metformin] | currents barely above the detectable limit | currents barely above the detectable limit | currents barely above the detectable limit | currents barely above the detectable limit | –
2 | CCCCNC(=N)NC(=N)N [buformin] | – | transported | transported | transported | –
3 | CNC(=N)NC(=N)N [methylbiguanide] | – | transported | transported | transported | –
4 | Gdx-pPro (Citrobacter freundii) | – | – | – | – | 2900 ± 500 µM
